Measured values reported in patent publication US20040120932A1, “In vitro-derived adult pluripotent stem cells and uses therefor” (priority 2000, published 2004).

Columns and labels:
[1] = system: human telomerase (“TRT”); assay: Semi-quantitative RT-PCR of telomerase (TRT) gene expression; type: cell-based; conditions: NUCREM cells subsequently treated with 1-2 μM retinoic acid, day five (treatment regimen 3)
Protocol: 5-aza-2′-deoxycytidine (Sigma, St. Louis) was added at a concentration of 10-25 μM to cultures of human adult keratinocytes that were approximately 40% to 80% confluent. These cultures were further incubated for approximately four (4) days at 37° C. in an atmosphere of 5-10% CO2. After four days in the presence of 5-aza-2′-deoxycytidine, trichostatin A (Sigma, St. Louis) was added to the cultures at a concentration of 100-250 ng/ml. Cultures were further incubated for approximately one (1) day, as described above. RNA was extracted from some of the aliquots of cultures at this point (treatment regimen 1) for subsequent RT-PCR analysis. Other aliquots of cultures were subsequently treated as follows. […]
(§1) RT-PCR was performed using the QIAGEN® OneStep RT-PCR Kit (Qiagen Inc., Valencia, Calif.) according to the manufacturer's instructions. […] To control for the quality of the extracted RNA and to serve as an internal quantification marker, human glyceraldehyde 3-phosphate dehydrogenase (“GAPDH”) oligonucleotide primers were included in the RT-PCR reaction.
(§2) The RT-PCR products were run out on a 2% agarose gel, which was then stained with ethidium bromide. The intensity of the resultant DNA bands were quantified using the PHORETIX™ TotalLab densitometry software package developed by Nonlinear USA (Durham, N.C.). […]

[2] = system: neurofilament heavy chain (“NF”); assay: Semi-quantitative RT-PCR of neurofilament heavy chain (NF) gene expression; type: cell-based, human; conditions: NUCREM cells treated with 1-2 μM retinoic acid, day five (treatment regimen 3); ±45% SEM, three experiments
Protocol: (§3) Subsequent to cyclin B treatment, the cultures of in vitro derived adult pluripotent stem cells were cultured in the presence of approximately 1-2 μM retinoic acid (“RA”) (Sigma, St. Louis) for five (5) to 10 days. […] By day five (5) of retinoic acid treatment, approximately 50% of the cells in culture attained a neuron-like morphology (FIG. 1). At day five of RA treatment (treatment regimen 3), RNA was extracted from the cultures for RT-PCR analysis. […]
as §1, §2

[3] = system: α1-antitrypsin (“αAT”); assay: Semi-quantitative RT-PCR of α1-antitrypsin (αAT) gene expression; type: cell-based, human; conditions: NUCREM cells treated with 1-2 μM retinoic acid, day five (treatment regimen 3); ±94% SEM, three experiments
Protocol: as §3, §1, §2

[4] = system: cardiac actin (“cACT”); assay: Semi-quantitative RT-PCR of cardiac actin (cACT) gene expression; type: cell-based, human; conditions: NUCREM cells treated with 1-2 μM retinoic acid, day five (treatment regimen 3); ±118% SEM, three experiments
Protocol: as §3, §1, §2

[5] = system: in vitro derived adult pluripotent stem cells (“NUCREM™ cells”); assay: Retinoic acid induced differentiation of in vitro derived adult pluripotent stem cells (morphology); type: cell-based, human; conditions: approximately 1-2 μM retinoic acid, day five
Protocol: Subsequent to cyclin B treatment, the cultures of in vitro derived adult pluripotent stem cells were cultured in the presence of approximately 1-2 μM retinoic acid (“RA”) (Sigma, St. Louis) for five (5) to 10 days. […] By day five (5) of retinoic acid treatment, approximately 50% of the cells in culture attained a neuron-like morphology (FIG. 1). At day five of RA treatment (treatment regimen 3), RNA was extracted from the cultures for RT-PCR analysis.

## CC1=C(/C=C/C(C)=C/C=C/C(C)=C/C(=O)O)C(C)(C)CCC1 [retinoic acid]
[1]
  decrease in levels of expression of TRT: approximately 50%
[2]
  increase in levels of expression of NF relative to untreated keratinocytes: 89%
[3]
  increase in levels of expression of αAT relative to untreated keratinocytes: 343%
[4]
  increase in levels of expression of cACT relative to untreated keratinocytes: 667%
[5]
  cells in culture that attained a neuron-like morphology: approximately 50%
